Results taken from article PMC6327998, “Synthesis and biological evaluation of thiazole derivatives as LbSOD inhibitors” (Journal of Enzyme Inhibition and Medicinal Chemistry, 2018).

Columns and labels:
[1] = target: T1, LbSOD (Leishmania braziliensis iron superoxide dismutase, FeSOD); test: Kd from concentration-response (FITC-labeled protein fluorescence / thermal shift); binding confirmed by ITC
T1 construct: recombinant from pETM11-LbSOD, 6xHis-tag removed by TEV protease (23 kDa)

[2] = target: T1, LbSOD (Leishmania braziliensis iron superoxide dismutase, FeSOD); test: Kd from concentration-response (FITC-labeled protein fluorescence / thermal shift); format: binding

SMILES	Kd [1] [mM]	Kd [2] [mM]
O=[N+]([O-])c1ccc(-c2csc(N=Cc3ccc(Br)c(Br)c3)n2)cc1 [Ju-480, N-(3,4-dibromobenzylidene)-4–(4-nitrophenyl)thiazol-2-imine]	0.0048 ± 0.0125	
COc1cccc(C=Nc2nc(-c3ccc(Br)cc3)cs2)c1 [Ju-514, N-(3-methoxybenzylidene)-4–(4-bromophenyl)thiazol-2-imine]		6.1 ± 0.8
